# Source: ChEMBL document CHEMBL4346728, “Discovery and development of DNA polymerase IIIC inhibitors to treat Gram-positive infections” (Bioorg Med Chem, 2019)
# The source made the active and inactive calls. The rule behind the calls is not given here.
# Columns and labels:
# Staphylococcus aureus [1] = assay: Antibacterial activity against methicillin-resistant Staphylococcus aureus by CLSI guideline based method; type: functional
# Enterococcus faecium [2] = assay: Antibacterial activity against vancomycin-resistant Enterococcus faecium by CLSI guideline based method; type: functional
# Streptococcus pyogenes = assay: Antibacterial activity against macrolide-resistant Streptococcus pyogenes by CLSI guideline based method; type: functional
# [3] = Inhibition of bacterial DNA polymerase 3C using dATP/dCTP/dTTP/dGTP as substrate in presence of activated calf thymus DNA incubated for 15 mins and measured for 1 min by luciferase based enzymatic assay; design: species or system Bacteria
# Staphylococcus aureus [4] = assay: Antibacterial activity against Staphylococcus aureus 133 incubated for 18 hrs by broth microdilution method; type: functional; conditions: Staphylococcus aureus, 133, 18 h
# Streptococcus pneumoniae [5] = assay: Antibacterial activity against Streptococcus pneumoniae 1707/4 incubated for 18 hrs under microaerophilic condition by broth microdilution method; type: functional; conditions: 1707/4, 18 h
# Enterococcus faecalis [6] = assay: Antibacterial activity against Enterococcus faecalis ICB 27159 incubated for 18 hrs under microaerophilic condition by broth microdilution method; type: functional; conditions: ICB 27159, 18 h
# Enterococcus faecalis [7] = assay: Antibacterial activity against Enterococcus faecalis ICB 27159 infected in CFW1 mouse assessed as mouse survival at 5 mg/kg, iv administered at 30 mins post infection and measured over 5 days; type: functional, organism-based
# Staphylococcus aureus [8] = assay: Antibacterial activity against Staphylococcus aureus 133 infected in CFW1 mouse, iv administered at 30 mins post infection and measured over 5 days; type: functional; conditions: Staphylococcus aureus, 133, iv
# [9] = Inhibition of Staphylococcus aureus R27 DNA polymerase 3C using activated calf thymus DNA as substrate in presence of dATP/dGTP/dCTP/[3H]dTTP measured for 20 mins
# [10] = Inhibition of Bacillus subtilis DNA polymerase 3
# [11] = Inhibition of recombinant Staphylococcus aureus DNA polymerase 3C expressed in Escherichia coli BL21 cells assessed as assessed as reduction in [3H]dTTP incorporation in to activated calf thymus DNA using calf thymus DNA as substrate incubated for 30 mins by scintillation counting analysis
# Bacillus subtilis [12] = assay: Antibacterial activity against Bacillus subtilis F2 incubated for overnight; type: functional
# Enterococcus faecium [13] = assay: Antibacterial activity against Enterococcus faecium RLA1 incubated for overnight; type: functional
# Staphylococcus aureus [14] = assay: Antibacterial activity against Staphylococcus aureus MB2865 incubated for overnight; type: functional
# Streptococcus pneumoniae [15] = assay: Antibacterial activity against Streptococcus pneumoniae MCL5350 incubated for overnight; type: functional
# [16] = Inhibition of recombinant Bacillus subtilis DNA polymerase 3C expressed in Escherichia coli using activated calf thymus DNA as substrate after 10 mins in presence of dATP/dCTP/[3H]dTTP/dATP by liquid scintillation counting analysis
# Bacillus subtilis [17] = assay: Antibacterial activity against Bacillus subtilis ATCC BD54 incubated for 16 to 24 hrs by microplate reader analysis; type: functional
# Staphylococcus aureus [18] = assay: Antibacterial activity against Staphylococcus aureus ATCC 25923 incubated for 16 to 24 hrs by microplate reader analysis; type: functional
# Staphylococcus aureus [19] = assay: Antibacterial activity against methicillin-resistant Staphylococcus aureus B42876 incubated for 16 to 24 hrs by microplate reader analysis; type: functional
# Enterococcus faecium [20] = assay: Antibacterial activity against Enterococcus faecium incubated for 16 to 24 hrs by microplate reader analysis; type: functional
# Enterococcus faecalis [21] = assay: Antibacterial activity against Enterococcus faecalis ATCC 29212 incubated for 16 to 24 hrs by microplate reader analysis; type: functional
# Enterococcus faecium [22] = assay: Antibacterial activity against vancomycin-resistant Enterococcus faecium incubated for 16 to 24 hrs by microplate reader analysis; type: functional
# Escherichia coli = assay: Antibacterial activity against Escherichia coli J53 incubated for 16 to 24 hrs by microplate reader analysis; type: functional
# Bacillus subtilis [23] = assay: Antibacterial activity against Bacillus subtilis ATCC BD54 incubated for 16 to 18 hrs by microplate reader analysis; type: functional
# Clostridioides difficile [24] = assay: Antibacterial activity against Clostridium difficile by CLSI method; type: functional
# Clostridioides difficile [25] = assay: Antibacterial activity against vancomycin-resistant Clostridium difficile by CLSI method; type: functional
# Clostridioides difficile [26] = assay: Antibacterial activity against metronidazole-resistant Clostridium difficile by CLSI method; type: functional
# Clostridioides difficile [27] = assay: In vivo inhibition of Clostridium difficile ATCC 43255 infected in golden syrian hamster assessed as reduction in recurrence rate at 50 mg/kg, po bid for 7 days relative to control; type: functional; conditions: 168 h
structure (smiles),measurement,setting,value
CS(=O)(=O)CCOCc1csc(NC(=O)NCc2ccc(Cl)c(Cl)c2)n1,MIC90,Staphylococcus aureus [1],1 to 8 µg/mL
same,MIC90,Enterococcus faecium [2],1 to 8 µg/mL
same,MIC90,Streptococcus pyogenes,1 to 8 µg/mL
CCc1cc(Nc2cc(=O)n(CC3CCN(C(=O)c4ccno4)CC3)c(=O)[nH]2)ccc1C,IC50,[3],100 nM
same,MIC,Staphylococcus aureus [4],16 µg/mL
same,MIC,Streptococcus pneumoniae [5],8 µg/mL
same,MIC,Enterococcus faecalis [6],8 µg/mL
same,Activity,Enterococcus faecalis [7],Active
same,ED50,Staphylococcus aureus [8],10 mg/kg
CCc1cc(Nc2cc(Oc3ccc(Br)cc3)nc(N)n2)ccc1C,IC50,[9],10000 nM
CCc1cc(Nc2cc(O)nc(O)n2)ccc1C,IC50,[10],1000 nM
CCc1cc(Nc2nc(O)c3c[nH]nc3n2)ccc1C,IC50,[11],71000 nM
same,MIC,Bacillus subtilis [12],≥ 9 µg/mL
same,MIC,Enterococcus faecium [13],≥ 9 µg/mL
same,MIC,Staphylococcus aureus [14],≥ 9 µg/mL
same,MIC,Streptococcus pneumoniae [15],≥ 9 µg/mL
COCCS(=O)(=O)Cc1csc(NC(=O)NCc2ccc(Cl)c(Cl)c2)n1,MIC,Staphylococcus aureus [1],0.5 to 4 µg/mL
same,MIC,Enterococcus faecium [2],0.5 to 4 µg/mL
same,MIC,Streptococcus pyogenes,0.5 to 4 µg/mL
CCc1cc(Nc2cc(=O)n(CCCCN3CCCCC3)c(=O)[nH]2)ccc1C,IC50,[16],28 nM
same,MIC,Bacillus subtilis [17],10 µg/mL
same,MIC,Staphylococcus aureus [18],20 µg/mL
same,MIC,Staphylococcus aureus [19],40 µg/mL
same,MIC,Enterococcus faecium [20],20 µg/mL
same,MIC,Enterococcus faecalis [21],20 µg/mL
same,MIC,Enterococcus faecium [22],10 µg/mL
same,MIC,Escherichia coli,> 20 µg/mL
Cc1noc(C)c1C(=O)N(C)Cc1csc(NC(=O)NCc2cccc(F)c2)n1,MIC90,Staphylococcus aureus [1],1 to 4 µg/mL
same,MIC90,Enterococcus faecium [2],1 to 4 µg/mL
same,MIC90,Streptococcus pyogenes,1 to 4 µg/mL
CCc1cc(Nc2cc(=O)n(CCCCO)c(=O)[nH]2)ccc1C,IC50,[16],63 nM
same,MIC,Bacillus subtilis [17],< 1.25 µg/mL
same,MIC,Staphylococcus aureus [18],5 µg/mL
same,MIC,Staphylococcus aureus [19],5 µg/mL
same,MIC,Enterococcus faecium [20],2.5 µg/mL
same,MIC,Enterococcus faecalis [21],5 µg/mL
same,MIC,Enterococcus faecium [22],2.5 µg/mL
same,MIC,Escherichia coli,> 20 µg/mL
COc1ccc(-c2cc(C(=O)N/N=C/c3cc(OC)c(OC)c(OC)c3)[nH]n2)cc1,IC50,[16],200 nM
same,MIC,Bacillus subtilis [23],0.625 µg/mL
O=c1[nH]c(NCc2ccc(Cl)c(Cl)c2)nc2ncn(CCN3CCOCC3)c12 [IBEZAPOLSTAT],MIC50,Clostridioides difficile [24],2 µg/mL
same,MIC90,Clostridioides difficile [24],4 µg/mL
same,MIC50,Clostridioides difficile [25],2 µg/mL
same,MIC90,Clostridioides difficile [25],4 µg/mL
same,MIC50,Clostridioides difficile [26],2 µg/mL
same,MIC90,Clostridioides difficile [26],4 µg/mL
same,inhibition in vivo at 50 mg/kg,Clostridioides difficile [27],40%
CN[C@H](CC(C)C)C(=O)N[C@H]1C(=O)N[C@@H](CC(N)=O)C(=O)N[C@H]2C(=O)N[C@H]3C(=O)N[C@H](C(=O)N[C@H](C(=O)O)c4cc(O)cc(O)c4-c4cc3ccc4O)[C@H](O)c3ccc(c(Cl)c3)Oc3cc2cc(c3O[C@@H]2O[C@H](CO)[C@@H](O)[C@H](O)[C@H]2O[C@H]2C[C@](C)(N)[C@H](O)[C@H](C)O2)Oc2ccc(cc2Cl)[C@H]1O [VANCOMYCIN],MIC50,Clostridioides difficile [24],1 µg/mL
same,MIC90,Clostridioides difficile [24],4 µg/mL
Cc1ncc([N+](=O)[O-])n1CCO [METRONIDAZOLE],MIC50,Clostridioides difficile [24],1 µg/mL
same,MIC90,Clostridioides difficile [24],4 µg/mL
